The source of these data is US10570140B2, “Selective inhibitors of protein arginine methyltransferase 5 (PRMT5)” (Prelude Therapeutics, Incorporated, priority 2017, dated 2020).

Assay [1] addresses PRMT5/MEP50 complex (Homo sapiens (Human), UniProt O14744). The assay can be described thus: PRMT5 biochemical assay (3H-SAM filter plate, histone H2A substrate). How it is done:
Biochemical Assay Protocol
Compounds were solubilized and 3-fold diluted in 100% DMSO. […] Standard reactions were performed in a total volume of 50 μl in assay buffer, with histone H2A (5 μM final) as substrate. To this was added the PRMT5/MEP50 complex diluted to provide a final assay concentration of 5 nM and the compounds were allowed to preincubate for 15 to 20 minutes at room temperature. The reaction was initiated by adding S-[3H-methyl]-adenosyl-L-methionine (PerkinElmer) to final concentration of 1 μM. Following a 60 minutes incubation at 30° C., the reaction was stopped by adding 100 μL of 20% TCA. Each reaction was spotted onto filter plate (MultiScreen FB Filter Plate, Millipore), and washed 5 times with PBS buffer, Scintillation fluid was added to the filter plate and read in a scintillation counter. IC50 values were determined by fitting the data to the standard 4 parameters with Hill Slope using GraphPad Prism software.

Assay [2] deals with sDMA. As to the kind of experiment: Western blot for symmetric di-methyl arginine (sDMA) IC50 in Granta cells. Particulars: Homo sapiens, 72 h; Granta-519 cell line, 3 days. The format is cell-based. In general terms: A western blot detects proteins with antibodies after separation by electrophoresis.
Where [3] appears, read: PRMT5/MEP50 5 nM, histone H2A 5 μM, SAM 1 μM, read-out: PRMT5 IC50.

Like-named read-outs stand apart in the source and are kept apart here.

PRMT5/MEP50 complex, sequence (O14744 whole entry): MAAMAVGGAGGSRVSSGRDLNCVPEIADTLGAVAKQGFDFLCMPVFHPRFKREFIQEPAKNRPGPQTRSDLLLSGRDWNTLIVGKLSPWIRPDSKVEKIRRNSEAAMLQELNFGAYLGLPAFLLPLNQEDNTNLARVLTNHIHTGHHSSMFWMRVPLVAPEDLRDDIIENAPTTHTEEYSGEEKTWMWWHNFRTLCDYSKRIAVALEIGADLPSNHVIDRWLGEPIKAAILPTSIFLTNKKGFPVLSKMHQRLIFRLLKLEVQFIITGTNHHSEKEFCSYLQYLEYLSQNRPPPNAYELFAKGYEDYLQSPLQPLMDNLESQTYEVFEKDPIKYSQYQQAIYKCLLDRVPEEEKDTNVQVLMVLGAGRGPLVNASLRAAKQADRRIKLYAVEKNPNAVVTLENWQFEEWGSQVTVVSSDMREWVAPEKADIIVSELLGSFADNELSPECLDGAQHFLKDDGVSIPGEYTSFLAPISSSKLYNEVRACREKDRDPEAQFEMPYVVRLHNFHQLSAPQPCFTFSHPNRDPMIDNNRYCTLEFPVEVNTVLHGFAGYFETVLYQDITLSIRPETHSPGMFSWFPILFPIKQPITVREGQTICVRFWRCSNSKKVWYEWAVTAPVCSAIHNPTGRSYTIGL
PRMT5/MEP50 complex, sequence (Q9BQA1 whole entry partner): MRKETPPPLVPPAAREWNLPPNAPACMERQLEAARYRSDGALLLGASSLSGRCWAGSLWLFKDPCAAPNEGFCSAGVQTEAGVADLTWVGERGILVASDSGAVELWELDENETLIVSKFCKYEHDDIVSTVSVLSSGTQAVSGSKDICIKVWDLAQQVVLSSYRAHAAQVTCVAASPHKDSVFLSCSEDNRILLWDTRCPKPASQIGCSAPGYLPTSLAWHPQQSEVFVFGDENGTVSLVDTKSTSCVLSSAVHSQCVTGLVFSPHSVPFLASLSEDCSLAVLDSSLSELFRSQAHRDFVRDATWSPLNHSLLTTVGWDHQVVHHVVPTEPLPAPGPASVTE

For `C[C@@]1(O)[C@@H](C(=O)Nc2cccc(CN)c2)O[C@@H](n2ccc3c(N)ncnc32)[C@@H]1O` [Example 43, (2S,3S,4R,5R)-5-(4-amino-7H-pyrrolo[2,3-d]pyrimidin-7-yl)-N-(3-(aminomethyl)phenyl)-3,4-dihydroxy-3-methyltetrahydrofuran-2-carboxamide], the concentration for half-maximal inhibition (IC50) (commonly the midpoint of a concentration-inhibition curve) in assay [1] (setting [3]) came to 825 nM.
Same read-out and setting: with `C[C@@]1(O)[C@@H](COc2ccccc2)O[C@@H](n2ccc3c(N)ncnc32)[C@@H]1O` [Example 20, (2R,3S,4R,5R)-5-(4-amino-7H-pyrrolo[2,3-d]pyrimidin-7-yl)-3-methyl-2-(phenoxymethyl)tetrahydrofuran-3,4-diol] the figure was 14300 nM; with `Cc1ncnc2c1ccn2[C@@H]1O[C@H](COc2ccc3ccc(N)nc3c2)[C@@](C)(O)[C@H]1O` [Example 10, (2R,3S,4R,5R)-2-(((2-aminoquinolin-7-yl)oxy)methyl)-3-methyl-5-(4-methyl-7H-pyrrolo[2,3-d]pyrimidin-7-yl)tetrahydrofuran-3,4-diol], 1.1 nM.
For `C#C[C@@]1(O)[C@@H](COc2ccc3ccc(N)nc3c2)O[C@@H](n2ccc3c(N)ncnc32)[C@@H]1O` [Example 3, (2R,3S,4R,5R)-5-(4-amino-7H-pyrrolo[2,3-d]pyrimidin-7-yl)-2-(((2-aminoquinolin-7-yl)oxy)methyl)-3-ethynyltetrahydrofuran-3,4-diol], the results for the 50% inhibitory concentration (IC50) in assay [1] (setting [3]) and in assay [2] were 1.6 nM and 44.2 nM, respectively.
With `COC[C@H]1O[C@@H](n2ccc3c(N)ncnc32)[C@H](O)[C@]1(C)O` [Example 19, (2R,3S,4R,5R)-5-(4-amino-7H-pyrrolo[2,3-d]pyrimidin-7-yl)-2-(methoxymethyl)-3-methyltetrahydrofuran-3,4-diol], the concentration for half-maximal inhibition (IC50) in assay [1] (setting [3]) is 1440 nM.
Regarding `C[C@@]1(O)[C@@H](Cc2ccc3c(c2)OCO3)O[C@@H](n2ccc3c(N)ncnc32)[C@@H]1O` [Example 49, (2R,3S,4R,5R)-5-(4-amino-7H-pyrrolo[2,3-d]pyrimidin-7-yl)-2-(benzo[d][1,3]dioxol-5-ylmethyl)-3-methyltetrahydrofuran-3,4-diol], the 50% inhibitory concentration (IC50) in assay [1] (setting [3]) worked out at 229 nM.
As to `CO/N=c1\[nH]cnc2c1ccn2[C@@H]1O[C@H]([C@H](O)c2ccc(Cl)cc2)[C@@](C)(O)[C@H]1O` [Example 44, (Z)-7-((2R,3R,4S,5R)-5-((R)-(4-chlorophenyl)(hydroxy)methyl)-3,4-dihydroxy-4-methyltetrahydrofuran-2-yl)-3,7-dihydro-4H-pyrrolo[2,3-d]pyrimidin-4-one O-methyl oxime], the half-inhibitory concentration (IC50) in assay [1] (setting [3]) turned out to be 3480 nM.
Still for that read-out and setting: with `CNc1ncnc2c1ccn2[C@@H]1O[C@H](CSC)[C@@](C)(O)[C@H]1O` [Example 40, (2S,3S,4R,5R)-3-methyl-5-(4-(methylamino)-7H-pyrrolo[2,3-d]pyrimidin-7-yl)-2-((methylthio)methyl)tetrahydrofuran-3,4-diol] the figure was 14100 nM.
The same measure, in the same setting: in the case of `Cc1ncnc2c1ccn2[C@@H]1O[C@H]([C@H](O)c2ccc(OC(F)(F)F)cc2)[C@@](C)(O)[C@H]1O` [Example 60, (2R,3S,4R,5R)-2-((R)-hydroxy(4-(trifluoromethoxy)phenyl)methyl)-3-methyl-5-(4-methyl-7H-pyrrolo[2,3-d]pyrimidin-7-yl)tetrahydrofuran-3,4-diol] it was 368 nM; in that of `Cc1cnc2cc(OC[C@H]3O[C@@H](n4ccc5c(N)ncnc54)[C@H](O)[C@]3(C)O)ccn12` [Example 68, (2R,3S,4R,5R)-5-(4-amino-7H-pyrrolo[2,3-d]pyrimidin-7-yl)-3-methyl-2-(((3-methylimidazo[1,2-a]pyridin-7-yl)oxy)methyl)tetrahydrofuran-3,4-diol], 0.9 nM.
Take `C[C@@]1(O)[C@@H](C(=O)Nc2cccc(CN)c2)O[C@@H](n2ccc3c(Cl)ncnc32)[C@@H]1O` [Example 42, (2S,3S,4R,5R)-N-(3-(aminomethyl)phenyl)-5-(4-chloro-7H-pyrrolo[2,3-d]pyrimidin-7-yl)-3,4-dihydroxy-3-methyltetrahydrofuran-2-carboxamide]: the IC50 in assay [1] (setting [3]) turned out to be 9100 nM.
Take `C[C@@]1(O)[C@@H](COc2cccc(NC(N)=O)c2)O[C@@H](n2ccc3c(N)ncnc32)[C@@H]1O` [Example 21, 1-(3-(((2R,3S,4R,5R)-5-(4-amino-7H-pyrrolo[2,3-d]pyrimidin-7-yl)-3,4-dihydroxy-3-methyltetrahydrofuran-2-yl)methoxy)phenyl)urea]: in assay [1] (setting [3]), the IC50 was determined as 7840 nM.
In the case of `C[C@@]1(O)[C@@H]([C@H](O)c2ccc(Cl)cc2)O[C@@H](n2ccc3/c(=N/O)[nH]cnc32)[C@@H]1O` [Example 46, (Z)-7-((2R,3R,4S,5R)-5-((R)-(4-chlorophenyl)(hydroxy)methyl)-3,4-dihydroxy-4-methyltetrahydrofuran-2-yl)-3,7-dihydro-4H-pyrrolo[2,3-d]pyrimidin-4-one oxime], in assay [1] (setting [3]), the IC50 came to 92 nM.
In the case of `CO/N=c1\[nH]cnc2c1ccn2[C@@H]1O[C@H](COc2ccc3ccc(N)nc3c2)[C@@](C)(O)[C@H]1O` [Example 32, 7-((2R,3R,4S,5R)-5-(((2-aminoquinolin-7-yl)oxy)methyl)-3,4-dihydroxy-4-methyltetrahydrofuran-2-yl)-3,7-dihydro-4H-pyrrolo[2,3-d]pyrimidin-4-one O-methyloxime], the IC50 in assay [1] worked out at 10 nM.
In the case of `C=C[C@@]1(O)[C@@H](COc2ccc3ccc(N)nc3c2)O[C@@H](n2ccc3c(N)ncnc32)[C@@H]1O` [Example 4, (2R,3S,4R,5R)-5-(4-amino-7H-pyrrolo[2,3-d]pyrimidin-7-yl)-2-(((2-aminoquinolin-7-yl)oxy)methyl)-3-vinyltetrahydrofuran-3,4-diol], the IC50 in assay [1] (setting [3]) came out at 8.7 nM.
Still for that read-out and setting: with `CO/N=c1\[nH]cnc2c1ccn2[C@@H]1O[C@H](COc2ccc3ccc(NOC)nc3c2)[C@@](C)(O)[C@H]1O` [Example 45, (Z)-7-((2R,3R,4S,5R)-3,4-dihydroxy-5-(((2-(methoxyamino)quinolin-7-yl)oxy)methyl)-4-methyltetrahydrofuran-2-yl)-3,7-dihydro-4H-pyrrolo[2,3-d]pyrimidin-4-one O-methyl oxime] the figure was 11500 nM; with `C[C@@]1(O)[C@@H](COc2cccc(NC(N)=O)c2)O[C@@H](n2ccc3c(Cl)ncnc32)[C@@H]1O` [Example 41, 1-(3-(((2R,3S,4R,5R)-5-(4-chloro-7H-pyrrolo[2,3-d]pyrimidin-7-yl)-3,4-dihydroxy-3-methyltetrahydrofuran-2-yl)methoxy)phenyl)urea], 200000 nM.
Regarding `C[C@@]1(O)[C@@H](Cc2ccc(Cl)cc2CO)O[C@@H](n2ccc3c(N)ncnc32)[C@@H]1O` [Example 65, (2R,3S,4R,5R)-5-(4-amino-7H-pyrrolo[2,3-d]pyrimidin-7-yl)-2-(4-chloro-2-(hydroxymethyl)benzyl)-3-methyltetrahydrofuran-3,4-diol], in assay [1] (setting [3]), the half-maximal inhibitory concentration (IC50) turned out to be 413 nM.
Same read-out and setting: in the case of `Cc1ncnc2c1ccn2[C@@H]1O[C@H](COc2ccc3cccnc3c2)[C@@](C)(O)[C@H]1O` [Example 54, (2R,3S,4R,5R)-3-methyl-5-(4-methyl-7H-pyrrolo[2,3-d]pyrimidin-7-yl)-2-((quinolin-7-yloxy)methyl)tetrahydrofuran-3,4-diol] it was 198 nM; in that of `Cc1ncnc2c1ccn2[C@@H]1O[C@H]([C@H](O)c2ccc(C(C)C)cc2)[C@@](C)(O)[C@H]1O` [Example 59, (2R,3S,4R,5R)-2-((R)-hydroxy(4-isopropylphenyl)methyl)-3-methyl-5-(4-methyl-7H-pyrrolo[2,3-d]pyrimidin-7-yl)tetrahydrofuran-3,4-diol], 399 nM; in that of `C[C@@]1(O)[C@@H](Cc2ccc(Cl)c(Cl)c2)O[C@@H](n2ccc3cncnc32)[C@@H]1O` [Example 51, (2R,3S,4R,5R)-2-(3,4-dichlorobenzyl)-3-methyl-5-(7H-pyrrolo[2,3-d]pyrimidin-7-yl)tetrahydrofuran-3,4-diol], 404 nM.
With `C[C@@]1(O)[C@@H](COc2ccc3cccnc3c2)O[C@@H](n2ccc3c(N)ncnc32)[C@@H]1O` [Example 53, (2R,3S,4R,5R)-5-(4-amino-7H-pyrrolo[2,3-d]pyrimidin-7-yl)-3-methyl-2-((quinolin-7-yloxy)methyl)tetrahydrofuran-3,4-diol], the concentration for half-maximal inhibition (IC50) in assay [1] (setting [3]) came out at 5.8 nM.
Regarding `Cc1ncnc2c1ccn2[C@@H]1O[C@H]([C@H](O)c2ccc(F)c(C(F)(F)F)c2)[C@@](C)(O)[C@H]1O` [Example 61, (2R,3S,4R,5R)-2-((R)-(4-fluoro-3-(trifluorometh-yl)phenyl)(hydroxy)methyl)-3-methyl-5-(4-methyl-7H-pyrrolo[2,3-d]pyrimidin-7-yl)tetrahydrofuran-3,4-diol], the IC50 in assay [1] (setting [3]) worked out at 16 nM.
Still for that read-out and setting: in the case of `CO/N=c1/nc[nH]c2c1ccn2[C@@H]1O[C@H]([C@H](O)c2ccc(Cl)c(Cl)c2)[C@@](C)(O)[C@H]1O` [Example 37, 7-((2R,3R,4S,5R)-5-((R)-(3,4-dichlorophenyl)(hydroxy)methyl)-3,4-dihydroxy-4-methyltetrahydrofuran-2-yl)-1,7-dihydro-4H-pyrrolo[2,3-d]pyrimidin-4-one O-methyl oxime] it was 428 nM.
Consider `Cc1ncnc2c1ccn2[C@@H]1O[C@H](Cc2ccc(Cl)cc2CO)[C@@](C)(O)[C@H]1O` [Example 64, (2R,3S,4R,5R)-2-(4-chloro-2-(hydroxymethyl)benzyl)-3-methyl-5-(4-methyl-7H-pyrrolo[2,3-d]pyrimidin-7-yl)tetrahydrofuran-3,4-diol], for which the IC50 in assay [1] (setting [3]) came to 1610 nM.
